# Reference: EP0250134B1, “Method for combating swine dysentery” (IMCERA Group Inc., priority 1986, dated 1987)
# Columns and labels:
# [1] = tested on: Treponema hyodysenteriae induced swine dysentery; assay: Treponema hyodysenteriae induced swine dysentery, lysocellin in feed, 51-day trial, challenge on study day 22; format: in vivo; conditions: for Daily feed / Daily gain / Feed/Gain: infected pigs
# Excerpt: One hundred twenty (120) cross-bred barrows and gilts were used in a randomized complete blocks design to evaluate the effect of lysocellin on Treponema hyodysenteriae induced swine dysentery. The swine were divided into 4 groups: (1) non-infected, non-medicated controls, (2) infected non-medicated controls, (3) infected, medicated at 98.43 grams lysocellin/t (100 g/T), and (4) infected, medicated at 196.85 grams lysocellin/t (200 g/T). All were observed through a 51-day trial period. Swine in groups (2)-(4) were challenged with Treponema hyodysenteriae on study day 22 and the post-challenge period data were analyzed for significant differences. A description of the experimental design is summarized as follows:
# Comparisons were made on treatment 1 vs. treatments 3 and 4, treatment 2 vs. treatment 3 and 4, and treatment 3 vs. treatment 4. The following observations were made based upon data analyzed: postchallenge performance of swine with respect to daily gain and daily feed gain, number of pigs per pen expressing clinical signs of dysentery during the postchallenge period, number of pig days per pen with clinical signs of dysentery during the postchallenge period, and number of pig days per pen with specified fecal score.
# Referring to table 3 and table 4, clinical signs of dysentery observed during the postchallenge period are presented as treatment means of: number of pigs per pen expressing the sign and number of pig days the sign was observed within a pen. The value "pig days" was based on 28 days/pig surviving to the end of the trial or number of days a pig survived during the postchallenge period (for example, 5 pigs/pen on trial for 28 days equals 140 pig days). Removal of pigs from a pen during the trial was taken into account in these calculations.
# [2] = tested on: Treponema hyodysenteriae; assay: in vitro Streak Plate Test Method (inhibition endpoint / MIC on trypticase soy blood agar); format: cell-based; conditions: summary of Table 1
# Description: The following test procedure was used to evaluate the anti-Treponema hyodysenteriae activity of the compounds in the present invention. This test procedure establishes the lowest concentration of the compounds that will inhibit the growth on cultures of Treponema hyodysenteriae in an in vitro Streak Plate Test Method.
# Procedure: Stock solutions containing 10,000, 1,000, 100, 10, 1.0, and 0.1, micrograms per milliliters of the compound to be tested were prepared. The final dilutions to establish the test concentrations in the media were made by placing the correct volume of stock solution in a petri dish, adding the media (trypticase soy blood agar), and mixing before the media solidified. After the media solidified, the test cultures of Treponema hyodysenteriae were streaked onto the surface of the agar. Petri dishes containing media without test samples were also set up as culture controls and are inoculated in the same manner. All inoculated plates were incubated at 39°C in anaerobic jars for 48 hrs. Inhibition endpoints were then determined by observing the test plates for growth or no growth of the test cultures at the various concentrations of the compounds. If the culture growth occured at one concentration but not at the next higher concentration, the inhibitory endpoint or MIC (Minimum Inhibitory Concentration) was considered the higher concentration.
# Referring to Table 1, the culture numbers refer to field isolate strains of Treponema hyodysenteriae. These field isolates were isolated in Illinois, Iowa, and Nebraska. The numbers giving the results in the Table are read as follows: the first number for each isolate and compound tested corresponds to the concentration in micrograms per milliliter where growth occurred and the second number corresponds to the concentration in micrograms per milliliter where no growth occurred.
# [3] = 196.85 g/t (200 g/T) lysocellin, mean (lower, higher 95% confidence limits), 5 pigs/pen for 28 days = 140 pig days
# [4] = postchallenge period 0-7 days, 98.43 g/t (100 g/T) lysocellin
# [5] = postchallenge period 0-7 days, 196.85 g/t (200 g/T) lysocellin
# [6] = postchallenge period 0-14 days, 98.43 g/t (100 g/T) lysocellin
# [7] = postchallenge period 0-14 days, 196.85 g/t (200 g/T) lysocellin
# [8] = postchallenge period 0-21 days, 98.43 g/t (100 g/T) lysocellin
# [9] = postchallenge period 0-21 days, 196.85 g/t (200 g/T) lysocellin
# [10] = postchallenge period 0-28 days, 98.43 g/t (100 g/T) lysocellin
# [11] = postchallenge period 0-28 days, 196.85 g/t (200 g/T) lysocellin
substance,measurement,setting,value
lysocellin,Number of Pig Days per Pen with Clinical Signs of Dysentery During the Postchallenge Period: Gauntness,[1]; [3],"11.17 (5.73,18.30)"
same,Number of Pig Days per Pen with Clinical Signs of Dysentery During the Postchallenge Period: Lethargic,[1]; [3],"1.82 (0.07,4.74)"
same,Number of Pig Days per Pen with Clinical Signs of Dysentery During the Postchallenge Period: Reddened skin,[1]; [3],"1.29 (-0.02,3.41)"
same,Number of Pig Days per Pen with Clinical Signs of Dysentery During the Postchallenge Period: Rough hair coat,[1]; [3],"9.55 (2.33,21.19)"
same,Number of Pig Days per Pen with Clinical Signs of Dysentery During the Postchallenge Period: Weak,[1]; [3],"0.13 (-0.35,0.94)"
same,mortality,[1]; infected pigs fed lysocellin,prevented mortality
same,anorexia (clinical sign),"[1]; infected pigs receiving either level of lysocellin, postchallenge period",No pigs receiving lysocellin appeared anorexic
same,feed efficiency,[1]; pigs receiving lysocellin (either level) vs infected control pigs,superior (P<.05)
same,cumulative average daily gain,"[1]; pigs receiving lysocellin (either level) vs infected nonmedicated pigs, each period (7, 14, 21 and 28 days)",improved (P<.05) over that of nonmedicated pigs
same,fecal condition (number of pen pig days with a specified fecal condition),"[1]; pigs receiving lysocellin vs infected non-medicated control pigs, postchallenge period (Table 5, not given)",Infected non-medicated control pigs had significantly fewer (P<.05) days of normal feces and more (P<.05) days of water or bloody diarrhea than pigs receiving lysocellin
same,Daily feed,[1]; [4],1.06 kg/day
same,Daily gain,[1]; [4],0.35 kg/day
same,Feed/Gain,[1]; [4],3.21
same,Daily feed,[1]; [5],0.94 kg/day
same,Daily gain,[1]; [5],0.41 kg/day
same,Feed/Gain,[1]; [5],2.30
same,Daily feed,[1]; [6],0.90 kg/day
same,Daily gain,[1]; [6],0.22 kg/day
same,Feed/Gain,[1]; [6],4.61
same,Daily feed,[1]; [7],1.03 kg/day
same,Daily gain,[1]; [7],0.35 kg/day
same,Feed/Gain,[1]; [7],2.99
same,Daily feed,[1]; [8],0.89 kg/day
same,Daily gain,[1]; [8],0.28 kg/day
same,Feed/Gain,[1]; [8],3.38
same,Daily feed,[1]; [9],1.07 kg/day
same,Daily gain,[1]; [9],0.42 kg/day
same,Feed/Gain,[1]; [9],2.55
same,Daily feed,[1]; [10],0.99 kg/day
same,Daily gain,[1]; [10],0.33 kg/day
same,Feed/Gain,[1]; [10],3.01
same,Daily feed,[1]; [11],1.15 kg/day
same,Daily gain,[1]; [11],0.45 kg/day
same,Feed/Gain,[1]; [11],2.55
same,activity compared to the controls,[2],comparable activity
